According to article PMC5639367, “Structure‐Guided Design of Peptides as Tools to Probe the Protein–Protein Interaction between Cullin‐2 and Elongin BC Substrate Adaptor in Cullin RING E3 Ubiquitin Ligases” (Chemmedchem, 2017):
Read-outs that look alike come from different tables or passages of the source. Square brackets hold non-standard residues; d marks the D form. Ends that are not written are not given here. Peptide text beside a SMILES is read from it. Chg = N[C@H](C(=O)O)C1CCCCC1; Pen = CC(C)(S)[C@H](N)C(=O)O; Phg = N[C@H](C(=O)O)c1ccccc1; Tle = CC(C)(C)[C@H](N)C(=O)O; Nva = CCC[C@H](N)C(=O)O

Assays:
[1] = molecular target: T1, VBC (Homo sapiens, UniProt P40337+Q15369+Q15370); experiment: Biolayer interferometry (BLI) binding of peptides to immobilised VBC
T1 construct: made in house; host or cells: E. coli BL21(DE3)
Experimental: Biolayer interferometry: BLI experiments were performed in an Octet RED384 (FòrteBio). Biotinylated VBC (25 μg mL^−1) was immobilized on Super Streptavidin‐coated biosensor (FòrteBio). The experiments were conducted at 25 °C, in 20 mM HEPES pH 7.6, 100 mM NaCl, 1 mM DTT and 0.02 % (v/v) Tween‐20 buffer. The response of the reference tips was subtracted from the signal to account for unspecific binding. The data points were fitted using a 1:1 model. […]
peptides. Biotinylated VBC was immobilised on the tips and the peptides were tested in a concentration range from 27 µM to 7 mM. The different colours represent the different concentrations and corresponding responses. The assay was performed […]
Figure S2 – Biolayer interferomery experiments with the alanine scan peptides.
Biotinylated VBC was immobilised on the tips and the peptides were tested in a concentration range from 27 µM to 7 mM. The different colours represent the different concentrations and corresponding responses. The assay was performed in […]
leucine replacement versus VBC tested on a concentration-dependent assay. […]

[2] = molecular target: T2, native interaction between VBC and Cul2 (Homo sapiens, UniProt P40337+Q15369+Q15370); experiment: AlphaLISA competition assay to displace Cul2 from VBC; format: binding; settings: V6×HisBC 500 nM, biotinylated Rbx1-Cul2 150 nM
T2 construct: made in house; host or cells: E. coli BL21(DE3) for VBC
Experimental: AlphaLISA: Anti‐His6 acceptor beads and Streptavidin donor beads (PerkinElmer) were used. […] The final volume of each well was 20 μL. The plate was then read in a PHERAstar FS (BMG LABTECH). Each of the competitors was titrated in quadruplicate. The fitting and IC50 determination were performed in GraphPad Prism 7 (GraphPad Software, La Jolla, CA, USA).

[3] = Precipitation of peptides in the conditions of the BLI experiment; format: physicochemical; settings: 20 mM HEPES pH 7.6, 100 mM NaCl, 1 mM DTT, 0.02 % Tween-20, 25 °C; visual
Experimental: Based on the structural analysis of the Cul2‐VBC interface, we first aimed to recapitulate the interaction using N‐terminal Cul2 peptides varying from three to eleven residues. […] Thus, the next step was to enhance the binding affinity of the peptides toward VBC.
Biolayer interferometry: BLI experiments were performed in an Octet RED384 (FòrteBio). Biotinylated VBC (25 μg mL^−1) was immobilized on Super Streptavidin‐coated biosensor (FòrteBio). The experiments were conducted at 25 °C, in 20 mM HEPES pH 7.6, 100 mM NaCl, 1 mM DTT and 0.02 % (v/v) Tween‐20 buffer. The response of the reference tips was subtracted from the signal to account for unspecific binding. The data points were fitted using a 1:1 model.

[4] = 8-mer peptide variants replacing Leu3, BLI, biotinylated VBC on Super Streptavidin biosensor, peptides 27 µM to 7 mM, 20 mM HEPES pH 7.6, 100 mM NaCl, 1 mM DTT, 0.02% Tween-20, 25 °C, 1:1 model, read-out: K d

Kd [1, 4] [µM] | Compound | further results
8900 ± 700 | CSCC[C@H](N)C(=O)N[C@@H](CO)C(=O)N[C@H](C(=O)N[C@@H](CCCCN)C(=O)N1CCC[C@H]1C(=O)N[C@@H](CCCNC(=N)N)C(=O)N[C@H](C(=O)N[C@H](C(N)=O)C(C)C)C(C)C)C1CCCCC1 [I] (H-MS[Chg]KPRVV-NH2) | 
3100 ± 200 | MSFKPRVV-NH2 [C] | 

Second part, the compound before the results:

Compound | Kd [1, 4] [µM] | further results
CCC[C@H](NC(=O)[C@H](CO)NC(=O)[C@@H](N)CCSC)C(=O)N[C@@H](CCCCN)C(=O)N1CCC[C@H]1C(=O)N[C@@H](CCCNC(=N)N)C(=O)N[C@H](C(=O)N[C@H](C(N)=O)C(C)C)C(C)C [F] (H-MS[Nva]KPRVV-NH2) | 1900 ± 200 | 
CSCC[C@H](N)C(=O)N[C@@H](CO)C(=O)N[C@H](C(=O)N[C@@H](CCCCN)C(=O)N1CCC[C@H]1C(=O)N[C@@H](CCCNC(=N)N)C(=O)N[C@H](C(=O)N[C@H](C(N)=O)C(C)C)C(C)C)C(C)(C)C [G] (H-MS[Tle]KPRVV-NH2) | 900 ± 100 | 
CSCC[C@H](N)C(=O)N[C@@H](CO)C(=O)N[C@H](C(=O)N[C@@H](CCCCN)C(=O)N1CCC[C@H]1C(=O)N[C@@H](CCCNC(=N)N)C(=O)N[C@H](C(=O)N[C@H](C(N)=O)C(C)C)C(C)C)c1ccccc1 [H] (H-MS[Phg]KPRVV-NH2) | 2100 ± 600 | 
CSCC[C@H](N)C(=O)N[C@@H](CO)C(=O)N[C@H](C(=O)N[C@@H](CCCCN)C(=O)N1CCC[C@H]1C(=O)N[C@@H](CCCNC(=N)N)C(=O)N[C@H](C(=O)N[C@H](C(N)=O)C(C)C)C(C)C)C(C)(C)S [Peptide J] (H-MS[Pen]KPRVV-NH2) |  | Displacement of Cul2 from VBC in AlphaLISA (in words) [2]: displace Cul2
MSLKPRAV-NH2 |  | Kd [1]: 2100 ± 600 µM
MSLKPRVVD [9‐mer] |  | Precipitation in the conditions of the BLI experiment (in words) [3]: formed a white precipitate
MSLKPRVVDFD [11‐mer] |  | Precipitation in the conditions of the BLI experiment (in words) [3]: formed a white precipitate
MSYKPRVV-NH2 [D] | 7400 ± 400 | 
